Results taken from patent US8901129B2, “Methods of facilitating neural cell survival using GDNF family ligand (GFL) mimetics or RET signaling pathway activators” (GeneCode AS, priority 2009, dated 2014).

How the values were obtained:
[1] = system: RET-expressing reporter cell line (RET alone); experiment: Reporter-gene luciferase activity assay, dose-response (FIG. 5); assay type: cell-based; details: cells expressing RET alone; 1-50 μM, 24 h
Experimental: Generation of stable cell lines. MG87RET murine fibroblast were plated on […] dishes and transfected with 4 μg of G4-Luc, Gal4-Elk (Baloh et al., 2000) and GFRα1 expressing plasmid (“αLUC” cells) or empty vector (“NOα” cells) containing neomycin-resistance gene in ratio 4:1:1 using Lipofectamine 2000 (Invitrogen) for DNA delivery as described by manufacturer. The following day, cells were trypsinized and plated in low density on 10-cm tissue culture dishes. Stable transformants were selected in the presence of 500-750 μg/ml geneticin (Invitrogen). Established cell lines were maintained in DMEM, 10% fetal bovine serum (FBS), 100 μg/ml Normocin (Invivogene), 2 μg/ml of puromycin, 500 μg/ml of geneticin, 15 mM HEPES, pH 7.2. Pathdetect Elk-1 system and human GFRα1-expressing plasmid (“Strat-Luc” cells) or empty vector (control cell line “NOStratis”) cells were selected and maintained in the DMEM, 10% FBS, 100 μg/ml Normocin (Invivogene), 2 μg/ml of puromycin, 500 μg/ml of G418, 2 μg/ml of blasticidin S, 15 mM HEPES, pH 7.2.
(§1) Cells were plated on 96-well plates (or 384-well) in cell density 20 000 (or 5 000 for 384-well format) cells per well in DMEM, 10% FBS, 100 μg/ml Normocin, 2 μg/ml puromycin, 500 μg/ml of G418, 15 mM HEPES, pH 7.2 one day before assay. The following day, the compounds were added to a final concentration of 1-50 μM. Structures of the compounds are shown in the description of FIG. 5, above. Cells were allowed to produce luciferase for 24 h, then lysed in 20 μl of 1×Cell culture lysis reagent (Promega) and freeze-thawed once to ensure complete lysis. Then 5 μl of the lysate was mixed (on ice) with 20 μl of luciferase assay substrate (Promega) in a well of black Isoplate (PerkinElmer). Luminescence was counted on MicroBeta 2 counter (PerkinElmer) twice. Data are presented as fold induction, where the corresponding concentration of DMSO was used as a reference.

[2] = system: GFRα3/RET-expressing reporter cell line; experiment: as above; assay type: cell-based, human; details: GFRα3/RET cells; 1-50 μM, 24 h
From the text: Full-length flag-tagged rat Gfrα1 cDNA (Leppänen et al., 2004) subcloned into in pcDNA3 (Invitrogen). Full-length human GFRα1 cDNA (Sidorova et al., unpublished) subcloned in pcDNA6 (Invitrogen). Full-length human GFRα3 cDNA (Wang et al., 2006). Full-length human RET (long isoform) (Runeberg-Roos et al., 2007) in pCR3.1 (Invitrogen). The MAPK activation detection system (Baloh et al., 2000) and PathDetect Elk-1 (Stratagene) both of which include two plasmids. First one constitutively expresses MAPK pathway specific fusion transactivator, that consists of activation domain of Elk-1 and DNA-binding domain of the yeast GAL4 protein (Gal4-Elk1). The other plasmid, Gal4-Luc, carries luciferase gene under the control of a synthetic promoter containing the yeast GAL4 binding sequences.
as §1

6-OHDA lesioned rats = experiment: Amphetamine induced rotation asymmetry in 6-OHDA rat model of Parkinson's disease (FIG. 7); assay type: in vivo; details: for amphetamine-induced ipsilateral rotation: 3 weeks after 6-OHDA, measured 6 weeks after 6-OHDA; for amphetamine-induced ipsilateral rotation of lesioned rats: injected into striatum 3 weeks after 6-OHDA, dose not stated
From the text: The objective of this study is to investigate the effect of intrastriatally (i.s.) administered small molecule GDNF mimetics (compounds 13, 16, 319H6 and 292651, structures shown in the description of the Figures, above) in a rat model 6-OHDA of Parkinson's disease. In the sub-acute lesion model used in this study, the lesion of the substantia nigra (SNc) that slowly progresses over weeks is created by injection of 6-OHDA into the proximity of the dopaminergic terminals in the striatum (Kirik-D 1998, Exp. Neurol. 152:259-277). In this model, a portion of the nigrostriatal projection is left intact, which can serve as a substrate for regeneration and functional recovery in response to growth promoting and neuroprotective agents.
GDNF mimetics compounds, GDNF or vehicle is administered to the striatum at 3 weeks after the exposure to the neurotoxin 6-OHDA. The selective damage to dopaminergic neurons in the SNc, as well as striatal levels of dopamine and its metabolites are evaluated 12 weeks after the injection of 6-OHDA with tyrosine hydroxylase (TH) immunohistochemistry and HPLC, respectively. In addition, the behavioral impairment of rats is evaluated by forelimb asymmetry test (cylinder test), amphetamine induced rotation asymmetry test and Y-maze test for stereotypic spontaneous rotation deficits.
Animals: All animal experiments are carried out according to the National Institute of Health (NIH) guidelines for the care and use of laboratory animals, and approved by the State Provincial Office of Southern Finland. Altogether 108 male Wistar rats, purchased from Charles River, Germany and weighing 220-275 g are used for the experiment. Animals are housed at a standard temperature (22±1° C.) and in a light-controlled environment (lights on from 7 am to 8 pm) with ad libitum access to food and water. Animals are grouped as follows:
In order to generate partial retrograde degeneration into the SNc, 6-OHDA lesioning is carried out according to Sauer and Oertel with modifications (Sauer and Oertel, 1994). Male Wistar rats are anesthetized with 5% isoflurane (in 70% N2O and 30% O2; flow 300 ml/min) and placed in a stereotactic frame. During the operation concentration of anesthetic is reduced to 1-1.5%. The rectal temperature is maintained at 37.0±1.0° C. with a homeothermic blanket system. The right brain hemisphere is exposed through a small craniectomy to the skull. The dura mater is carefully removed with fine forceps and a stereotaxic injection of 6-OHDA (4 μg/μl) is made into the right striatum. A total of 7 μl of 6-OHDA is infused at a speed of 0.5 μl/min and is equally distributed between 4 sites at the following coordinates: AP+1.0, ML+2.8, DV−6.0, −5.5, −5.0 and −4.4 mm. The cannula is left in place for another 5 min before being withdrawn. The hole in the skull is subsequently filled with repair material and the skin is closed and disinfected. The rats are allowed to recover from anesthesia and are carefully monitored for possible post surgical complications. The animals are returned to the home cages with ad libitum access to food and water.
On day 21, rats are re-anesthetized with 5% isoflurane (in 70% N2O and 30% O2; flow 300 ml/min) and placed in a stereotactic frame. During the operation concentration of anesthetic is reduced to 1-1.5%. The rectal temperature is maintained at 37.0±1.0° C. with a homeothermic blanket system. The right brain hemisphere is exposed through a small craniectomy to the skull. A stereotaxic injection of the test compound, GDNF or vehicle is made into the right striatum. Each dosing solution is infused at a speed of 1 μl/min and is equally distributed between 4 sites at the following coordinates: AP+1.0, ML+2.8, DV−6.0, −5.5, −5.0 and −4.4 mm. The cannula is left in place for another 5 min before being withdrawn. The hole in the skull is subsequently filled with repair material and the skin is closed and disinfected. […]

## CCN(CC)S(=O)(=O)c1ccc(OC)c(N2CCN(C(=O)c3cc(F)ccc3C(F)(F)F)CC2)c1 [BT13]
[1]
  induction of luciferase expression: No significant effect
[2]
  induction of luciferase expression: in a dose-dependent manner induce luciferase expression
6-OHDA lesioned rats; 0.2 ug intrastriatal
  amphetamine-induced ipsilateral rotation: reduced amphetamine-induced ipsilateral rotation
6-OHDA lesioned rats
  amphetamine-induced ipsilateral rotation of lesioned rats: significantly reduce

## COc1ccc(S(=O)(=O)N2CCc3ccccc3C2)cc1N1CCN(C(=O)c2cc(F)ccc2C(F)(F)F)CC1 [BT16]
[1]
  induction of luciferase expression: No significant effect
[2]
  induction of luciferase expression: in a dose-dependent manner induce luciferase expression
6-OHDA lesioned rats
  amphetamine-induced ipsilateral rotation of lesioned rats: significantly reduce
6-OHDA lesioned rats; intrastriatal (Group 5: 0.5 ug per rat)
  amphetamine-induced ipsilateral rotation: reduced amphetamine-induced ipsilateral rotation

## COc1cc2c(cc1OC)CN(S(=O)(=O)c1ccc(OC)c(N3CCN(C(=O)c4cc(F)ccc4C(F)(F)F)CC3)c1)CC2 [BT18]
6-OHDA lesioned rats; 1 ug intrastriatal
  amphetamine-induced ipsilateral rotation: reduced amphetamine-induced ipsilateral rotation
6-OHDA lesioned rats
  amphetamine-induced ipsilateral rotation of lesioned rats: significantly reduce
